Reference: patent publication US6090605A, “Purified porcine kidney L-fucose kinase” (The Board of Trustees of the University of Arkansas, priority 1998, dated 2000)
“Also recorded” adds a separate entry of the source. Each block holds one molecule with its values, some of them ahead of it.

Assays:
[1] = molecular target: T1, pig kidney fucokinase (Sus scrofa, UniProt I3LTC2); experiment: Specificity of fucokinase for phosphate donor (nucleotides); format: biochemical; conditions: for activity as phosphate donor (in words): nucleotide added at 1 mM; for Specific Activity: nucleotide added at 1 mM as phosphate donor
T1 construct: L-Fucokinase was purified to apparent homogeneity from the cytosolic fraction of pig kidney; from tissue; host or cells: pig kidney, cytosolic fraction
T1 sequence (I3LTC2 1-1083): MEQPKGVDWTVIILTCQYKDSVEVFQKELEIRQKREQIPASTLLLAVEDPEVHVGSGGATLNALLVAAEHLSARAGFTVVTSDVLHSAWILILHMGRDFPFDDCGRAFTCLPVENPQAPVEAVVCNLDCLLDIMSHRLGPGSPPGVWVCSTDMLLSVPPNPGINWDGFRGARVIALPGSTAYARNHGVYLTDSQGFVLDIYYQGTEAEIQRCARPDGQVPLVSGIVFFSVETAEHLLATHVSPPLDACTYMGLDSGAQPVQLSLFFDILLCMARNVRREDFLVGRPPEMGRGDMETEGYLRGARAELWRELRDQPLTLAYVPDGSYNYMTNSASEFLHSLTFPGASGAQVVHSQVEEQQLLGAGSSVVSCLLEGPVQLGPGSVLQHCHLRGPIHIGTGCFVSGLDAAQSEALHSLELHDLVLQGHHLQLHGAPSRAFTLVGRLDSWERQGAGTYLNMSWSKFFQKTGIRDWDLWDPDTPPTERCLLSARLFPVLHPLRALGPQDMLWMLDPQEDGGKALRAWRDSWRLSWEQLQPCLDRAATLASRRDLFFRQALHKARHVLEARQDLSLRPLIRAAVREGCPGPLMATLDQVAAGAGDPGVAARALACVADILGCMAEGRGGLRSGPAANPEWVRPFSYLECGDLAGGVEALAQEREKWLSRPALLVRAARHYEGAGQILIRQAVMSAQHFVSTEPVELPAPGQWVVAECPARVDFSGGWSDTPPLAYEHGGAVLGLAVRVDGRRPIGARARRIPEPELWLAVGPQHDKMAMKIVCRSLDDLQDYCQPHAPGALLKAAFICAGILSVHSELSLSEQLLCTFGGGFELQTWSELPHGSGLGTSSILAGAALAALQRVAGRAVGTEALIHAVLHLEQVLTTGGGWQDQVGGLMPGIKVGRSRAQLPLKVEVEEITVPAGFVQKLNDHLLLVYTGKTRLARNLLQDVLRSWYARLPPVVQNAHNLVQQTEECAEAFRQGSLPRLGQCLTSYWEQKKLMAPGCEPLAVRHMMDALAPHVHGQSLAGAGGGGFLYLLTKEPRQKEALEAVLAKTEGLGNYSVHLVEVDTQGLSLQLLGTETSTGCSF
Procedure: (§1) Fucokinase activity was assayed by measuring the production of L-fucose-1-Pfrom [^3 H]L-fucose and ATP. The incubation mixtures contained the following components (final concentrations) in a total volume of 150 μl: L-fucose, 0.1 mM; ATP, 5 mM; MgSO4, 5 mM; Tris-HCl buffer, pH 8.0, 65 mM; and various amounts of enzyme at the different stages of purification. Incubations were at 37° C. for 10 minutes, and reactions were terminated by heating the reaction mixtures in a boiling water bath for 1 minute. The incubation mixtures were then applied to a column of DE-52 contained in a Pasteur pipette, and the column was washed with at least 5 column volumes of 10 mM (NH4)HCO3 to remove the unbound material. The [^3 H]fucose-1-P was then eluted with 500 mM (NH4)HCO3. Aliquots of the eluates were assayed for their radioactive content by subjecting a portion to scintillation counting.
The specificity of the nucleoside triphosphate was also examined by testing the ability of a variety of nucleotides to serve as phosphate donors in the phosphorylation of [^3 H]L-fucose. […] In addition, no activity is observed with any nucleoside diphosphates or monophosphates.

[2] = molecular target: T1, pig kidney fucokinase; experiment: Effect of metal ions on fucokinase activity; format: biochemical; conditions: for effect on activity when added to incubations containing Mg++ (in words): metal ion at 1 mM
Procedure: Increasing concentrations of the metal ions shown were added to incubations of the purified enzyme with ^3 H-fucose and ATP, and the formation of fucose-1-P was measured as described below. Metal ions tested were as follows: Mg^++, filled circles; Fe^++, filled diamonds; Co^++, filled triangles; Mn^++, filled squares.
as §1
Co^++ and Mn^++ were also stimulatory with maximum activity occurring at about 3 to 5 mM, but the maximum activity was only about 25% to 33% of that observed with Mg^++.

[3] = molecular target: T1, pig kidney fucokinase; experiment: Sugar specificity of purified fucokinase (radiolabeled sugars as phosphate acceptors); format: biochemical; conditions: for Specific Activity: radiolabeled sugar 100 μM as phosphate acceptor
Procedure: as §1
The specificity of the kinase for various sugar substrates was examined in two different ways. In the first set of experiments, various radiolabeled sugars were tested as phosphate acceptors for the purified enzyme using the ion-exchange chromatography method for assay of activity. […] D-Arabinose, which has the same configuration at carbons 1 through 4 as L-fucose, was also a reasonable substrate for phosphorylation, and was about 10% as effective as L-fucose. On the other hand, all of the other sugars were ineffective as phosphate acceptors.

[4] = molecular target: T1, pig kidney fucokinase; experiment: Inhibition of [3H]L-fucose phosphorylation by unlabeled monosaccharides; format: biochemical; conditions: for Relative Activity (%): unlabeled monosaccharide 500 μM, radiolabeled L-fucose substrate 100 μM; for inhibition of phosphorylation of [3H]L-fucose (in words): unlabeled sugar 500 μM
Procedure: as §1
Although it was possible to get a reasonable assessment of the sugar specificity of the kinase from the above experiment, it was not possible to test sugars such as D-fucose, since these sugars are not available in radioactive form. Thus, these unlabeled sugars were tested for their ability to inhibit the phosphorylation of [^3 H]L-fucose. The rationale for this experiment is that a sugar that inhibits the phosphorylation of L-fucose would probably compete with L-fucose for the phosphorylation (i.e., active) site.

[5] = test system: pig liver L-fucokinase preparation; conditions: cited from earlier work
[6] = molecular target: T2, pig kidney fucokinase (110 kDa band) (Sus scrofa, UniProt I3LTC2); experiment: Photoaffinity labeling of the fucokinase with 8-azido-ATP[32P]; format: binding; conditions: for labeling of the 110 kDa protein by photoprobe (in words): incubation with probe, exposure to UV light
T2 construct: L-Fucokinase was purified to apparent homogeneity from the cytosolic fraction of pig kidney; from tissue; host or cells: pig kidney, cytosolic fraction
T2 sequence (I3LTC2 1-1083): T1 sequence (I3LTC2 1-1083)
Procedure: The purified enzyme was incubated for 20 seconds with azido-ATP[^32 P], and the mixture was exposed to UV for 90 seconds. The reaction was stopped by adding loading buffer and the mixture subjected to SDS-PAGE. Radioactive bands were detected by exposure to film. Lanes are as follows: Lane 1, Probe+enzyme, but no UV; Lane 2, Probe+enzyme+UV; Lanes 3 through 6. Probe+enzyme+0.3, 0.6, 0.9, and 1.2 mM ATP+exposure to UV light; lanes 7 and 8, 0.6 and 1.2 mM GTP+probe+exposure to UV light: lanes 9 and 10, 0.6 and 1.2 mM ITP+probe+exposure to UV light. In lanes 11 and 12, the enzyme was incubated with N3 -GTP[^32 P ] and then exposed to UV light (lane 12) or not exposed to UV light (lane 11). Lane 13 is a control of enzyme+N3 -ATP[^32 P]+exposure to UV light.
Enzyme, at various stages of purity, was mixed with 8-azido-ATP[^32 P] in buffer, and allowed to incubate for 20 sec. in an ice bath. 8-Azido-ATP[^32 P] was prepared as previously described (16). After incubation, the reaction mixture was exposed to short wave UV light for about 90 sec. to activate the azido group, and the protein was subjected to SDS gel electrophoresis to separate the proteins. The gels were dried and exposed to film to locate the radioactive bands and were also stained with Coomassie blue to locate the various proteins. The specificity of the labeling was determined by examining the effect of various concentrations of unlabeled ATP or other nucleotides on the labeling of the protein by N3 -ATP[^32 P]. Various controls were also run, such as one in which exposure to UV was omitted.
Lanes 11-13 of FIG. 3 show the results of another experiment designed to determine whether 8-N3 -GTP[^32 P] could label the fucokinase. […] These experiments indicate that the fucokinase is quite specific for ATP.

Molecule: Nc1ccn([C@@H]2O[C@H](COP(=O)(O)O)[C@@H](O)[C@H]2O)c(=O)n1 [CMP]
- activity as phosphate donor (in words) [1]: Inactive

Molecule: [Ni+2] [Ni^++]
- stimulation of enzyme activity by metal ion (in words) [2]: inactive

Molecule: [Cu+2] [Cu^++]
- stimulation of enzyme activity by metal ion (in words) [2]: inactive
- effect on activity when added to incubations containing Mg++ (in words) [2]: completely inhibited activity

Molecule: O=C[C@H](O)[C@H](O)[C@H](O)CO [D-ribose]
- Specific Activity [3]: 0 nmole/mg protein
- Relative Activity (%) [4]: 96%
- phosphorylation of sugar by the about 70-fold purified preparation (in words) [5]: considerable activity for phosphorylating

Molecule: C[C@@H](O)[C@H](O)[C@H](O)[C@@H](O)C=O [D-fucose]
- Relative Activity (%) [4]: 102%
- inhibition of phosphorylation of [3H]L-fucose (in words) [4]: ineffective as inhibitors

Molecule: Nc1ncnc2c1ncn2[C@@H]1O[C@H](COP(=O)(O)OP(=O)(O)OP(=O)(O)O)[C@@H](O)[C@H]1O [ATP]
- Specific Activity [1]: 4.05 nmoles/mg protein/10 min
- inhibition of labeling of the 110 kDa band by N3-ATP[32P] (in words) ([6]; unlabeled ATP 0.3-1.2 mM, GTP, ITP 0.6 and 1.2 mM): inhibited in a dose-dependent manner

Molecule: [Hg+2] [Hg^++]
- stimulation of enzyme activity by metal ion (in words) [2]: inactive
- effect on activity when added to incubations containing Mg++ (in words) [2]: completely inhibited activity

Molecule: Nc1ccn([C@@H]2O[C@H](COP(=O)(O)OP(=O)(O)O)[C@@H](O)[C@H]2O)c(=O)n1 [CDP]
- activity as phosphate donor (in words) [1]: Inactive

Molecule: O=CC[C@@H](O)[C@H](O)[C@H](O)CO [2-deoxy-D-glucose]
- Relative Activity (%) [4]: 92%
- inhibition of phosphorylation of [3H]L-fucose (in words) [4]: ineffective as inhibitors

Molecule: O=C[C@@H](O)[C@H](O)[C@H](O)CO [D-arabinose]
- activity as phosphate acceptor (in words) ([3]; purified enzyme): active as phosphate acceptors
- rate of phosphorylation relative to L-fucose ([3]; purified enzyme, sugar as phosphate acceptor): about 10%
- Specific Activity [3]: 1.1 nmole/mg protein
- Relative Activity (%) [4]: 80%
- inhibition of phosphorylation of [3H]L-fucose (in words) [4]: inhibited although considerably less so than the L-fucose

Molecule: [N-]=[N+]=Nc1nc2c(N)ncnc2n1[C@@H]1O[C@H](COP(=O)(O)OP(=O)(O)OP(=O)(O)O)[C@@H](O)[C@H]1O [N3 -ATP[^32 P], 8-azido-ATP[^32 P]]
- labeling of the 110 kDa protein by photoprobe (in words) [6]: did result in labeling of the 110 kDa protein

Molecule: Nc1ncnc2c1ncn2[C@@H]1O[C@H](COP(=O)(O)OP(=O)(O)O)[C@@H](O)[C@H]1O [ADP]
- activity as phosphate donor (in words) [1]: Inactive

Molecule: [Ca+2] [Ca^++]
- stimulation of enzyme activity by metal ion (in words) [2]: inactive

Molecule: O=C[C@H](O)[C@@H](O)[C@H](O)CO [D-xylose]
- Specific Activity [3]: 0 nmole/mg protein
- Relative Activity (%) [4]: 103%

Molecule: C[C@@H](O)[C@@H](O)[C@H](O)[C@H](O)C=O [D-rhamnose]
- Relative Activity (%) [4]: 102%

Molecule: Nc1ccn([C@@H]2O[C@H](COP(=O)(O)OP(=O)(O)OP(=O)(O)O)[C@@H](O)[C@H]2O)c(=O)n1 [CTP]
- Specific Activity [1]: 0.05 nmoles/mg protein/10 min
- use as phosphate donor (in words) [5]: could also use

Molecule: Nc1ncnc2c1ncn2[C@@H]1O[C@H](COP(=O)(O)O)[C@@H](O)[C@H]1O [AMP]
- activity as phosphate donor (in words) [1]: Inactive

Further lines, with some results ahead:

- stimulation of enzyme activity by metal ion (in words) [2]: inactive
Molecule: [Mo+2] [Mo^++]

- activity as phosphate donor (in words) [1]: Inactive
Molecule: O=c1ccn([C@@H]2O[C@H](COP(=O)(O)OP(=O)(O)O)[C@@H](O)[C@H]2O)c(=O)[nH]1 [UDP]

- activity as phosphate donor (in words) [1]: Inactive
Molecule: Nc1nc2c(ncn2[C@@H]2O[C@H](COP(=O)(O)O)[C@@H](O)[C@H]2O)c(=O)[nH]1 [GMP]

- stimulation of enzyme activity by metal ion (in words) [2]: inactive
- effect on activity when added to incubations containing Mg++ (in words) [2]: completely inhibited activity
Molecule: [Zn+2] [Zn^++]

- Specific Activity [3]: 11.8 nmole/mg protein
- Relative Activity (%) [4]: 23%
- inhibition of phosphorylation of [3H]L-fucose (in words) [4]: reasonable inhibitor
Molecule: C[C@H](O)[C@@H](O)[C@@H](O)[C@H](O)C=O [L-fucose]
- activity as phosphate acceptor (in words) ([3]; purified enzyme): by far the best substrate; also recorded: active as phosphate acceptors

- activity as phosphate donor (in words) [1]: Inactive
Molecule: Nc1nc2c(ncn2[C@@H]2O[C@H](COP(=O)(O)OP(=O)(O)O)[C@@H](O)[C@H]2O)c(=O)[nH]1 [GDP]

- stimulation of enzyme activity by metal ion (in words) [2]: inactive
Molecule: [Fe+3] [Fe^+++]

- labeling of the 110 kDa protein by photoprobe (in words) [6]: did not give rise to labeled protein
Molecule: 8-N3 -GTP[^32 P]

- metal ion concentration at optimum (maximum) activity [2]: about 10 mM
- stimulation of enzyme activity by metal ion (in words) [2]: nearly the same degree as Mg^++
Molecule: [Fe+2] [Fe^++]

- activity as phosphate donor (in words) [1]: Inactive
Molecule: O=c1ccn([C@@H]2O[C@H](COP(=O)(O)O)[C@@H](O)[C@H]2O)c(=O)[nH]1 [UMP]

- inhibition of phosphorylation of [3H]L-fucose (in words) [4]: ineffective as inhibitors
Molecule: C[C@H](O)[C@H](O)[C@@H](O)[C@@H](O)C=O [L-rhamnose]
- phosphorylation of sugar by the about 70-fold purified preparation (in words) [5]: considerable activity for phosphorylating

- Specific Activity [1]: 0.04 nmoles/mg protein/10 min
Molecule: O=c1ccn([C@@H]2O[C@H](COP(=O)(O)OP(=O)(O)OP(=O)(O)O)[C@@H](O)[C@H]2O)c(=O)[nH]1 [UTP]
- use as phosphate donor (in words) [5]: could also use

- stimulation of enzyme activity by metal ion (in words) [2]: gave the best stimulation
Molecule: [Mg+2] [Mg^++]
